According to the supplement of paper PMC10307832:

Assays:
Test in all cases: relative viability (nuclei count vs DMSO), 5 days (fraction); higher = more cells survive
[1] = compound: COCC[n+]1c2c(n(Cc3cnccn3)c1C)C(=O)c1ccccc1C2=O [YM155] + CS(=O)(=O)N1CCN(Cc2cc3nc(-c4cccc5[nH]ncc45)nc(N4CCOCC4)c3s2)CC1 [Pictilisib] (partner 1 µM)
Method in brief: (§1)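 Nuclei were stained with Hoechst during a one-step fixation (final 0.05% Triton X-100, 1% formaldehyde, 1 ug/ml Hoechst) carried out 5 days after dosing, then counted on 4× images. The cells, lung cancer lines in 1536-well plates, had been dosed by pin tool the day after seeding with one drug alone or a fixed anchor-drug dose plus five library-drug doses (not always all listed) in √10 steps. Relative viability is the nuclei count in treated wells divided by that in vehicle wells, and each value is the median of duplicate plates.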

[2] = compound: COCC[n+]1c2c(n(Cc3cnccn3)c1C)C(=O)c1ccccc1C2=O [YM155] + O=C(c1cc(Cc2n[nH]c(=O)c3ccccc23)ccc1F)N1CCN(C(=O)C2CC2)CC1 [Olaparib] (partner 8 µM)
Method in brief: as §1

[3] = compound: COCC[n+]1c2c(n(Cc3cnccn3)c1C)C(=O)c1ccccc1C2=O [YM155] + CC(=O)c1c(C)c2cnc(Nc3ccc(N4CCNCC4)cn3)nc2n(C2CCCC2)c1=O [Palbociclib] (partner 0.5 µM)
Method in brief: as §1

[4] = compound: CC(C)(C)c1cc(NC(=O)Nc2ccc(-c3cn4c(n3)sc3cc(OCCN5CCOCC5)ccc34)cc2)no1 [Quizartinib] + CC(=O)c1c(C)c2cnc(Nc3ccc(N4CCNCC4)cn3)nc2n(C2CCCC2)c1=O [Palbociclib] (partner 0.5 µM)
Method in brief: as §1

Cell Line | relative viability ([1]; first compound 0.002 µM) | relative viability ([1]; first compound 0.006325 µM) | relative viability ([1]; first compound 0.02 µM) | relative viability ([1]; first compound 0.06325 µM) | relative viability ([2]; first compound 0.002 µM) | relative viability ([2]; first compound 0.006325 µM) | relative viability ([2]; first compound 0.02 µM) | relative viability ([2]; first compound 0.06325 µM) | relative viability ([3]; first compound 0.002 µM) | relative viability ([3]; first compound 0.006325 µM) | relative viability ([3]; first compound 0.02 µM) | relative viability ([3]; first compound 0.06325 µM) | relative viability ([4]; first compound 0.001 µM) | relative viability ([4]; first compound 0.003162 µM) | relative viability ([4]; first compound 0.01 µM) | relative viability ([4]; first compound 0.03162 µM) | relative viability ([4]; first compound 0.1 µM)
HOP-62 | 0.79 | 0.63 | 0.818 | 0.749 | 0.668 | 0.35 | 0.419 | 0.29 | 0.484 | 0.441 | 0.42 | 0.437 | 0.438 | 0.357 | 0.526 | 0.459 | 0.349
IA-LM | 0.312 | 0.266 | 0.367 | 0.141 | 0.836 | 0.891 | 0.879 | 0.642 | – | – | – | – | – | – | – | – | –
LC-2-ad | 0.455 | 0.586 | 0.568 | 0.452 | 0.718 | 0.685 | 0.695 | 0.617 | 0.455 | 0.485 | 0.511 | 0.411 | 0.4 | 0.518 | 0.528 | 0.508 | 0.461
LCLC-97TM1 | 0.184 | 0.208 | 0.221 | 0.148 | – | 0.321 | 0.311 | 0.376 | – | 0.232 | 0.241 | 0.19 | 0.22 | 0.226 | 0.219 | 0.241 | 0.236
LCLC-103H | 0.595 | 0.654 | 0.668 | 0.508 | 0.738 | 0.845 | 0.77 | 0.801 | 0.472 | 0.471 | 0.491 | 0.499 | 0.38 | 0.506 | 0.482 | 0.513 | 0.558
LK-2 | 0.565 | 0.541 | 0.475 | 0.53 | 0.644 | 0.71 | 0.797 | 0.75 | 0.851 | 0.655 | 0.632 | 0.78 | 0.734 | 0.621 | 0.853 | 0.599 | 0.69
LOU-NH91 | 0.495 | 0.519 | 0.578 | 0.535 | 0.894 | 0.874 | 0.921 | 0.745 | 0.527 | 0.509 | 0.628 | 0.544 | 0.59 | 0.506 | 0.547 | 0.577 | 0.567
LU99A | 0.354 | 0.335 | 0.315 | 0.284 | 0.269 | 0.236 | 0.255 | 0.262 | 0.416 | 0.403 | 0.388 | 0.409 | 0.39 | 0.404 | 0.422 | 0.432 | 0.249
LXF-289 | 0.772 | 0.771 | 0.752 | 0.549 | 0.984 | 1.04 | 1.04 | 0.947 | 0.584 | 0.628 | 0.612 | 0.605 | 0.52 | 0.603 | 0.649 | 0.594 | 0.574
NCI-H23 | 0.518 | 0.459 | 0.484 | 0.222 | – | 0.323 | 0.294 | 0.235 | – | 0.567 | 0.523 | 0.388 | 0.425 | 0.543 | 0.548 | 0.453 | 0.396
NCI-H322M | 0.49 | 0.553 | 0.559 | 0.556 | 0.719 | 0.815 | 0.706 | 0.734 | 0.433 | 0.471 | 0.503 | 0.473 | 0.429 | 0.477 | 0.49 | 0.512 | 0.527
NCI-H358 | 0.254 | 0.349 | 0.332 | 0.249 | 0.574 | 0.625 | 0.529 | 0.156 | 0.129 | 0.129 | 0.134 | 0.157 | 0.131 | 0.117 | 0.134 | – | 0.138
NCI-H441 | 0.539 | 0.527 | 0.47 | 0.381 | 0.597 | 0.524 | 0.518 | 0.299 | 0.224 | 0.202 | 0.267 | 0.213 | 0.191 | 0.222 | 0.169 | 0.191 | 0.219
NCI-H460 | 0.355 | 0.351 | 0.413 | 0.451 | 0.411 | 0.444 | 0.417 | 0.384 | 0.166 | 0.169 | 0.226 | 0.212 | – | 0.136 | 0.188 | – | 0.125
NCI-H520 | 0.236 | 0.298 | 0.255 | 0.293 | 0.362 | 0.441 | 0.379 | 0.294 | 0.175 | 0.205 | 0.238 | 0.304 | – | 0.257 | 0.251 | 0.196 | 0.175
NCI-H522 | – | – | – | – | 0.727 | 0.646 | 0.594 | 0.612 | 1.01 | 1.01 | 1.18 | 1.06 | 0.898 | 0.995 | 1.01 | 1.34 | 0.977
NCI-H596 | – | 0.387 | 0.378 | 0.431 | 0.719 | 0.669 | 0.697 | 0.622 | – | – | – | – | – | – | – | – | –
NCI-H647 | 0.352 | 0.345 | 0.399 | 0.213 | 0.506 | 0.64 | 0.516 | 0.295 | 0.348 | 0.424 | 0.423 | 0.238 | 0.371 | 0.348 | 0.413 | 0.403 | 0.511
NCI-H1299 | 0.653 | 0.803 | 0.845 | 0.516 | 1 | 0.998 | 0.971 | 0.875 | – | – | – | – | – | – | – | – | –
NCI-H1563 | 0.633 | 0.674 | 0.626 | 0.75 | – | – | – | – | – | – | – | – | – | – | – | – | –
NCI-H1703 | 0.26 | 0.232 | 0.248 | 0.116 | 0.499 | 0.403 | 0.346 | 0.387 | – | – | – | – | – | – | – | – | –
NCI-H2342 | – | – | – | – | 0.356 | 0.386 | 0.473 | 0.445 | 0.515 | 0.496 | 0.475 | 0.54 | 0.482 | 0.538 | 0.483 | 0.615 | 0.462
SW 900 | – | – | – | – | – | 0.788 | 0.848 | 0.808 | – | 0.586 | 0.579 | 0.608 | 0.507 | 0.547 | 0.63 | 0.541 | 0.558
